Data from publication PMC6431176 (Proceedings of the National Academy of Sciences of the …, 2019).

Target: T1, Stl1 (Saccharomyces cerevisiae, UniProt P39932)
T1 sequence (P39932 1-569): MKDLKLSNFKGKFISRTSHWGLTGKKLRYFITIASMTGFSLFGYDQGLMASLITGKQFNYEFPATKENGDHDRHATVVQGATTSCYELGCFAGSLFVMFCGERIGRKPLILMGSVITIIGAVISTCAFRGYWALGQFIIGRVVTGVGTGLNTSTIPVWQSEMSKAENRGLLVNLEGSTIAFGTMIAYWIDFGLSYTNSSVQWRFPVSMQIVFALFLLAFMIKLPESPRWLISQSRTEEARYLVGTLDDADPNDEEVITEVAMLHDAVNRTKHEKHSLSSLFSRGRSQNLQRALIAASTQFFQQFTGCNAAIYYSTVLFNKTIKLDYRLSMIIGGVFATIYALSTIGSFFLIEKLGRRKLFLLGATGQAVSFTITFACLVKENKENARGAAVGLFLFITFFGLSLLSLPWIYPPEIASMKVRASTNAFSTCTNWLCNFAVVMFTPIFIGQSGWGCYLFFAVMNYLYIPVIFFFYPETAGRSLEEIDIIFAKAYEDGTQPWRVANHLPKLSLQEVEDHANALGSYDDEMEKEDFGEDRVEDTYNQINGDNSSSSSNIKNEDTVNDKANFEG
Assay: […]-glycerol accumulation in S. cerevisiae
Assay type: cell-based
Conditions: labelled compound; 1 mM, Tris/citrate pH 5.0, 30 °C

OCC(O)CO [glycerol]
14C-glycerol accumulation in S. cerevisiae: higher uptake rate of glycerol by the Stl1 transporter compared with the HGT-1 transporter
